In publication PMC7395176, “Retromer stabilization results in neuroprotection in a model of Amyotrophic Lateral Sclerosis” (Nature Communications, 2020):

What was measured:
VPS29 = target: T1, VPS29 (Mus musculus, UniProt Q9QZ88); test: Western blot for VPS29 in treated Neuro2a cells; assay type: cell-based; details: 10 µM, 48 h, WB
T1 construct: endogenous in cells; host or cells: Neuro2a (ATCC CCL-131)
Protocol: Compound 2a increases VPS26b and VPS29 in Neuro2a […]
a,WBs forVPS26b, VPS29 and β-Tubulin in vehicle- and compound 2a-treated Neuro2a cells(10 μM, 48h, 3x10^5 cells/well).Quantitative analyses of blots (means ± SD) are shown inhistograms (control:n=4 independent wells, 2a: n=5 independent wells examined in one experiment, p<0.0001 for all the comparisons. Two-tailed Student’s test was used to determine the statisticalsignificanceof data, ***p<0.0001
(1 picture or pasted object on this page, not shown here)

[1] = tested on: SOD1^G93A-transfected Neuro2a cells; test: Golgi morphology (Golgin97) in SOD1G93A-transfected Neuro2a cells; assay type: cell-based; details: 10 µM
Excerpt: The Golgi apparatus is affected in MNs from ALS patients and in cells overexpressing mutant SOD1 forms[35]–[37]. We transiently transfected Neuro2a cells with plasmids encoding SOD1^G93A before treatment with compound 2a. […] We next determined the viability of Neuro2a cells transfected with SOD1^G93A and exposed to compound 2a using a colorimetric assay. Controls cells received LacZ plasmids. […] We observed a slight, but not significant, reduction of cell viability in […] Neuro2a cells (Fig. 3b). […] The increased cell viability provided by compound 2a could result from unknown, nonspecific off-target effects. Therefore, we used plasmids encoding VPS35 to increase/stabilize the retromer complex. […] However, this phenotype was reverted co-transfecting VPS35 and SOD1^G93A plasmids (Fig. 3c).
Golgi morphology was assessed in control or in Neuro2a cells receiving G93A plasmids with or without compound 2a (10 µM) as well as in GFP-transfected cells as additional control. We used Golgin97 immunofluorescence to label trans-Golgi network membranes. We classified Golgi morphology as follow: normal (polarized network), intermediate (partially fragmented) or fragmented (severely fragmented with Golgi stacks dispersed in the cytoplasm throughout). […] Golgi subclasses were expressed as a percent of the total number of Golgi scored for each experimental condition.

VPS35 [2] = target: T2, VPS35 (Mus musculus, UniProt Q9EQH3+Q9QZ88); test: VPS35 levels in MNs and lumbar SC of treated G93A mice; assay type: in vivo; set-up: from tissue; host or cells: mouse (lumbar) spinal cord, motor neurons; details: 10 mg/kg, day 100
Protocol: We asked whether compound 2a could do the same in G93A MNs, using confocal microscopy to quantify VPS35 fluorescence levels in MNs gated in the ventral horn of lumbar SCs. We observed a significant reduction of VPS35 mean fluorescence intensity (MFI) levels in vehicle-treated G93A mice. […] We next assayed VPS26 MFI levels on parallel sections.
Fluorescence intensity levels of VPS35, VPS26, CI-MPR, Sortilin, CTSD and Ubiquitin were calculated using NHI-Image J software (US National Institutes of Health) according to the following protocol: stacks of confocal images were used to generate the maximal projections using the Leica Application Suite X (2.0.0.14332) software and then postprocessed by NHI-Image J to crop single NeuN^+ MNs from the ventral horn of the spinal cord. We next performed background (calculated on adjacent slices only receiving secondary antibodies) subtraction for each channel, before applying the NHI-Image J mean filter (with radius 2.0 pixels) to calculate mean NeuN fluorescence levels in individual MNs. Using this approach, we established a region of interest (ROI) to gate single MNs. On this ROI, we measured mean fluoresce levels (MFI) of target proteins.
Compound 2a increases VPS35 levels in G93A mice […]

VPS35 [3] = target: T2, VPS35; test: Cycloheximide (CHX) chase assay of VPS35 degradation in Neuro2a cells; assay type: cell-based; set-up: We incubated Neuro2a cells with compounds 2a–6a (10 µM); endogenous in cells; host or cells: Neuro2a (ATCC CCL-131); details: 10 µM 24 h pretreatment, CHX up to 8 h
Protocol: We next measured VPS35 degradation rates by a cycloheximide (CHX) chase assay. Neuro2a cells received vehicle or compound 2a (10 µM) for 24 h, then CHX was added and VPS35 levels were measured by WB.
Cycloheximide (CHX) assay was done on Neuro2a cells seeded in 6-well plates and incubated with compound 2a (10 µM) or vehicle for 24 h. We next added CHX (Sigma–Aldrich) at 10 µg/mL and cells were collected at 0, 2, 4, and 8 h for the time-course assay of VPS35 levels by WB.
Compound 2a stabilizes VPS35 levels in Neuro2a cells
A cycloheximide (CHX) chase assay was performed to determine the degradation rate of VPS35 in Neuro2a cells (3x10^5 cells/well). Cells were treated with vehicle or 2a (10 µM) for 24 h, and then chased with CHX (10 µg/mL) for 2, 4 and 8h.
WBs for VPS35 and β-Actin levels. Quantifications of normalized VPS35 levels (means normalized ratios ± SEM versus the time 0) are shown inpanel b (vehicle: n=10 independent wells, 2a: n=8 independent wells obtained from 3 independent experiments; control vs. 2a at 8 hours: p=0.009). c, quantitative real time PCR for Vps35, Vps26 and Vps29 mRNA (Vps35: controls n=8 independent wells; 2a: n=9 independent wells; Vps26 and Vps29: n=9 independent wells/group); data were collected from 3 independent experiments. […]

NC(N)=N/N=C/c1cccc(/C=N/N=C(N)N)c1 [compound 2a, phenyl-1,3-bis-guanylhydrazone]
VPS29 protein levels (VPS29): significantly increased
trans-Golgi fragmentation [1]: significantly reverted this phenotype
VPS35 levels in lumbar SC extracts (WB) (VPS35 [2]): increase VPS35 and VPS26b levels
VPS35 mean fluorescence intensity (MFI) in MNs (VPS35 [2]): significantly increased
VPS35 degradation in CHX chase (VPS35 [3]): protected VPS35 from degradation
